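In this assay, cells in 96-well plates receive the compound at five concentrations for 48 hours. Endpoints are linearly interpolated between the surrounding concentrations. GI50 = concentration required for 50% inhibition of growth. TGI: total growth inhibition.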

Some test systems named below: SK-OV-3 ovarian; SR leukemia; UACC-62 melanoma; SF-268 CNS; OVCAR-8 ovarian; HCT-116 colon; A549 NSCLC; NCI-H460 lung; TK-10 renal; PC-3 prostate.
Test in all cases: inhibition of tumour cell growth, NCI panel, 48 h

For `CC1(C)CCc2cc3c(cc2O1)OC(C)(C)C1c2c(ccc4c2CCC(C)(C)O4)OC31` (centres undefined), the TGI with SK-OV-3 ovarian, in the experiment on SR leukemia, in the experiment with UACC-62 melanoma, in the experiment on SF-268 CNS, in the experiment with OVCAR-8 ovarian and with HCT-116 colon was more than 100 µM throughout. In addition, the TGI in the experiment on A549 NSCLC and with NCI-H460 lung was more than 100 µM in each case.
With `O=C1c2cnccc2Cc2cccc3c2N1c1ccccc1S3`, the TGI in the experiment on SR leukemia is 34.8 µM; in the experiment on UACC-62 melanoma, 41.7 µM; with SF-268 CNS it was more than 100 µM; with HCT-116 colon, 33.8 µM; in the experiment on A549 NSCLC, more than 100 µM.
Regarding `CCOC(=O)CNC(SC)=C(C#N)C#N`, the TGI in the experiment with SK-OV-3 ovarian, in the experiment with SR leukemia, in the experiment with UACC-62 melanoma, with SF-268 CNS, with TK-10 renal and in the experiment on OVCAR-8 ovarian was more than 100 µM throughout. For the same molecule, the TGI in the experiment with HCT-116 colon, with A549 NSCLC and in the experiment on NCI-H460 lung was more than 100 µM each time.
`C[C@@H]1CN(Cc2ccc(/C=C/c3n[nH]c4ccc5nc(-c6cn[nH]c6C(F)(F)F)c6c(c5c34)CCCC6)cc2)C[C@H](C)O1`: the GI50 is 3.64 µM in the experiment with SK-OV-3 ovarian; 5.73 µM with UACC-62 melanoma; 3.93 µM in the experiment with PC-3 prostate; 4.21 µM with SF-268 CNS; 4.92 µM with TK-10 renal; 4.76 µM in the experiment on OVCAR-8 ovarian. For the same molecule, the results for the GI50 in the experiment with HCT-116 colon, in the experiment with A549 NSCLC and with NCI-H460 lung were 1.37 µM, 2.56 µM and 1.35 µM, respectively. Further, the TGI in the experiment on SK-OV-3 ovarian amounted to 17.3 µM; with UACC-62 melanoma, 19.3 µM; in the experiment on PC-3 prostate, 18.8 µM; with SF-268 CNS it was 19.1 µM; in the experiment with TK-10 renal, 17.7 µM; in the experiment with OVCAR-8 ovarian it was 23.1 µM. For the same molecule, the TGI with HCT-116 colon came out at 11.3 µM; in the experiment on A549 NSCLC it was 15 µM; in the experiment on NCI-H460 lung, 10.2 µM.
Take `C#CCOCn1cnc2ncnc(Cl)c21`: the TGI with SK-OV-3 ovarian, with SR leukemia, in the experiment with UACC-62 melanoma, in the experiment with SF-268 CNS, with TK-10 renal and in the experiment on OVCAR-8 ovarian was more than 100 µM in each case. Further, the TGI in the experiment on HCT-116 colon, in the experiment on A549 NSCLC and in the experiment with NCI-H460 lung was more than 100 µM in each case.
Turning to `CCN(CC)C(=O)c1c(N2CCOCC2)cc(N(CC)CC)oc1=O`, the TGI in the experiment with SK-OV-3 ovarian, in the experiment with SR leukemia, in the experiment on UACC-62 melanoma, in the experiment with SF-268 CNS, in the experiment with TK-10 renal and in the experiment with OVCAR-8 ovarian was more than 100 µM in each case. Further, the TGI in the experiment on HCT-116 colon, in the experiment on A549 NSCLC and with NCI-H460 lung was more than 100 µM in each case.
Turning to `CC(C)O/C=C1\C(=O)C2(SCCS2)[C@H]2CCCC[C@@H]12`, the TGI is more than 100 µM in the experiment on SK-OV-3 ovarian; more than 100 µM in the experiment with SR leukemia; 69.4 µM with UACC-62 melanoma; more than 100 µM with SF-268 CNS; more than 100 µM in the experiment on TK-10 renal; more than 100 µM with OVCAR-8 ovarian. Moreover, the TGI with HCT-116 colon, with A549 NSCLC and in the experiment on NCI-H460 lung was more than 100 µM in each case.
Consider `COc1ccc(-c2cc(-c3ccccc3)c(C#N)c(=O)[nH]2)cc1`, for which the TGI in the experiment with SK-OV-3 ovarian, with SR leukemia, in the experiment with UACC-62 melanoma, in the experiment on SF-268 CNS, in the experiment on TK-10 renal and in the experiment on OVCAR-8 ovarian was more than 100 µM in each case. The TGI in the experiment on HCT-116 colon, with A549 NSCLC and in the experiment on NCI-H460 lung was more than 100 µM throughout.
`COC(=O)C1CC2(c3ccc(C)cc3)C(c3ccc(C)cc3)=C(c3ccc(C)cc3)C1(c1ccc(C)cc1)S2=O` (centres undefined): the GI50 in the experiment with SK-OV-3 ovarian was more than 100 µM; with UACC-62 melanoma, more than 100 µM; with PC-3 prostate it was more than 100 µM; in the experiment with SF-268 CNS it was more than 100 µM; in the experiment on TK-10 renal, more than 100 µM; in the experiment on OVCAR-8 ovarian, 37.9 µM. For the same molecule, the GI50 with HCT-116 colon was 73.2 µM; with A549 NSCLC, more than 100 µM; in the experiment on NCI-H460 lung it was more than 100 µM. Further, the TGI with SK-OV-3 ovarian, in the experiment with UACC-62 melanoma, with PC-3 prostate, in the experiment on SF-268 CNS, with TK-10 renal and with OVCAR-8 ovarian was more than 100 µM throughout. Besides, the TGI with HCT-116 colon, with A549 NSCLC and in the experiment on NCI-H460 lung was more than 100 µM throughout.
For `NC1=CC(=O)C(=O)c2cccnc21`, the GI50 in the experiment with SK-OV-3 ovarian is 18.8 µM; with UACC-62 melanoma it was 1.83 µM; in the experiment with PC-3 prostate, 11.2 µM; in the experiment with SF-268 CNS, 4.81 µM; in the experiment on TK-10 renal, 29.3 µM; in the experiment on OVCAR-8 ovarian, 3.21 µM. Besides, the GI50 with HCT-116 colon was 3 µM; with A549 NSCLC, 3.55 µM; with NCI-H460 lung, 2.63 µM. Also, the TGI in the experiment with SK-OV-3 ovarian came to 41.2 µM; in the experiment on UACC-62 melanoma it was 3.79 µM; in the experiment with PC-3 prostate it was 49.2 µM; with SF-268 CNS, 18 µM; in the experiment on TK-10 renal, 68.2 µM; in the experiment on OVCAR-8 ovarian, 16.6 µM. Moreover, the TGI was 12.5 µM in the experiment on HCT-116 colon, 15.5 µM with A549 NSCLC and 7.38 µM in the experiment with NCI-H460 lung.
In the case of `CCOC(=O)c1c(-c2[nH]c(C(=O)OCc3ccccc3)c(C)c2C(=O)OCC)[nH]c(C(=O)OCc2ccccc2)c1C`, the TGI with SK-OV-3 ovarian, in the experiment with SR leukemia, with UACC-62 melanoma, in the experiment with SF-268 CNS, with TK-10 renal and in the experiment on OVCAR-8 ovarian was more than 100 µM each time. The TGI in the experiment on HCT-116 colon, with A549 NSCLC and in the experiment with NCI-H460 lung was more than 100 µM each time.
For the molecule `O=C1c2c(c3c4ccccc4n4c3c3c2c2ccccc2n3C/C=C\C4)C(=O)N1Cc1ccccc1`, the TGI with SK-OV-3 ovarian, with SR leukemia, in the experiment on UACC-62 melanoma, in the experiment with TK-10 renal, in the experiment on OVCAR-8 ovarian and in the experiment on HCT-116 colon was more than 100 µM in each case. Also, the TGI in the experiment with A549 NSCLC and with NCI-H460 lung was more than 100 µM throughout.

The values above are taken from PubChem BioAssay (NCI).
